The values below come from ChEMBL document CHEMBL5260810, “Inhibition of bromodomain-containing protein 9 for the prevention of epigenetically-defined drug resistance” (Bioorg Med Chem Lett, 2017).

As usually defined, the IC50 is the concentration needed to halve the response being measured. One may read the inhibition as the change of the read-out against control, counted positive when it falls. Read a low inhibition as a weak effect. A word on the Kd: it is the constant that tells how readily two partners part at equilibrium. Read a high Kd as weaker binding.

Molecules are shown by their SMILES. A value given as a limit tells only on which side of the number the result lay.

In the first assay the test system is ChaGo-K-1. In words: Cytotoxicity against human ChaGo-K-1 cells measured after 8 days. It counts as functional, cell-based. The conditions noted are these: ChaGo-K-1, 192 h.
Compound `C/C=C/Cn1cc(-c2ccc(C(=O)N3CCOCC3)cc2)c2cc[nH]c2c1=O` returned an IC50 of 20 µM. In other words, the double-digit micromolar range.

A further assay has as its system RKO. In words: Cytotoxicity against human RKO cells measured after 8 days. The assay is classed as functional, cell-based. The conditions noted are these: 192 h.
`C/C=C/Cn1cc(-c2ccc(C(=O)N3CCOCC3)cc2)c2cc[nH]c2c1=O` yielded an IC50 of 20 µM.

In the next assay the test system is GTL 16 cell line. Briefly: Cytotoxicity against human GTL 16 cell line measured after 8 days. It counts as functional, cell-based. Particulars: GTL 16, 192 h.
For `C/C=C/Cn1cc(-c2ccc(C(=O)N3CCOCC3)cc2)c2cc[nH]c2c1=O`, half-maximal inhibition (IC50) required 20 µM.

For the next assay, the species on record is Homo sapiens. Briefly: Displacement of [3H]BRL 43694 from human recombinant 5-HT3 receptor at 10 uM after 120 mins by scintillation counting analysis relative to control.
Details: not given
For orientation: Loss of bound radioactivity is the signal in a displacement assay; it reports binding, not function.
`C/C=C/Cn1cc(-c2ccc(C(=O)N3CCOCC3)cc2)c2cc[nH]c2c1=O`: the Activity is -5%.

Test system in another assay: not listed separately
In words: Cytotoxicity against human COLO 206F cells measured after 8 days. Particulars: 192 h. It counts as functional, cell-based.
`C/C=C/Cn1cc(-c2ccc(C(=O)N3CCOCC3)cc2)c2cc[nH]c2c1=O` had a concentration for half-maximal inhibition (IC50) of 20 µM. This counts as double-digit micromolar.

Another assay relates to COLO 320. In words: Cytotoxicity against human COLO 320 cells measured after 8 days. The assay is classed as functional, cell-based. Particulars: COLO 320, 192 h.
Turning to `C/C=C/Cn1cc(-c2ccc(C(=O)N3CCOCC3)cc2)c2cc[nH]c2c1=O`, the 50% inhibitory concentration (IC50) was found to be 20 µM.

The target in a further assay is Tyrosine-protein kinase Yes (Homo sapiens) (UniProt P07947). Briefly: Inhibition of Yes (unknown origin) at 1 uM relative to control.
Tyrosine-protein kinase Yes (Homo sapiens), sequence (P07947 2-543 limits assumed): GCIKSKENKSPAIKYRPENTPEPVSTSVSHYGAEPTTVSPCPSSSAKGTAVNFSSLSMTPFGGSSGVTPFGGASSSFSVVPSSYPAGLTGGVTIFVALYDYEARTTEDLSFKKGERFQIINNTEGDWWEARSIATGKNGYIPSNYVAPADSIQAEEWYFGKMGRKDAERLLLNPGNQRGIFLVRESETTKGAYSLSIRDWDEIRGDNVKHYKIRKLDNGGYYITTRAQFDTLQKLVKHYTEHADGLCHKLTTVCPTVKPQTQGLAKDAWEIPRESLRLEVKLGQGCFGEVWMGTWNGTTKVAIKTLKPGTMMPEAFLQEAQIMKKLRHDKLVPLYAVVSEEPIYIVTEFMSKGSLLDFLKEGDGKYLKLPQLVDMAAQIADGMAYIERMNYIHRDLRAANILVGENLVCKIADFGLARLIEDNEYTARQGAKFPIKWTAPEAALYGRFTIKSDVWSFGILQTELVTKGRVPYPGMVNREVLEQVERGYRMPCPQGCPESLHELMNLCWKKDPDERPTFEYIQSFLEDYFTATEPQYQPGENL
Details: not given
Turning to `C/C=C/Cn1cc(-c2ccc(C(=O)N3CCOCC3)cc2)c2cc[nH]c2c1=O`, the inhibition came out at 11.5%.

The target of another assay is 5-hydroxytryptamine receptor 2A (Homo sapiens) (UniProt P28223). Briefly: Displacement of [3H]ketanserin human recombinant 5-HT2A receptor at 10 uM after 60 mins by scintillation counting analysis relative to control.
5-hydroxytryptamine receptor 2A (Homo sapiens), sequence (P28223 whole entry): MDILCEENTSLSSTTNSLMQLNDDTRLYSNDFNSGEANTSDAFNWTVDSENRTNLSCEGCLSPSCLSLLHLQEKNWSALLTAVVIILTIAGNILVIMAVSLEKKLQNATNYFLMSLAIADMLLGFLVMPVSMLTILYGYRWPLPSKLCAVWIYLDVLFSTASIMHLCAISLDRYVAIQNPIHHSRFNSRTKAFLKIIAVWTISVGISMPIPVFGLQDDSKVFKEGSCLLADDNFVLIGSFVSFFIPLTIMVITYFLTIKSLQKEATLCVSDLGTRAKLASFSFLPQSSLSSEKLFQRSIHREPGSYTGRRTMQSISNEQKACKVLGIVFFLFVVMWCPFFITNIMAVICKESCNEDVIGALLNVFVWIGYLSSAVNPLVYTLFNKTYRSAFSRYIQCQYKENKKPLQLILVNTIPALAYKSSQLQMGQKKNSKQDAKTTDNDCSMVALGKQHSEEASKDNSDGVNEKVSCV
Details: not given
Regarding `C/C=C/Cn1cc(-c2ccc(C(=O)N3CCOCC3)cc2)c2cc[nH]c2c1=O`, the Activity came to 11%.

The test system of the next assay is LP-1. In words: Cytotoxicity against human LP-1 cells measured after 8 days. It counts as functional, cell-based. The conditions noted are these: LP-1, 192 h.
For `C/C=C/Cn1cc(-c2ccc(C(=O)N3CCOCC3)cc2)c2cc[nH]c2c1=O`, it took 20 µM to reach half-maximal inhibition (IC50).

Test system in another assay: not listed separately
In words: Cytotoxicity against human NCI-H2595 cells measured after 8 days. The conditions noted are these: NCI-H2595, 192 h. It counts as functional, cell-based.
In the case of `C/C=C/Cn1cc(-c2ccc(C(=O)N3CCOCC3)cc2)c2cc[nH]c2c1=O`, half-maximal inhibition (IC50) required 20 µM.

In the next assay the test system is CX-1. In words: Cytotoxicity against human CX-1 cells measured after 8 days. It counts as functional, cell-based. The conditions noted are these: CX-1, 192 h.
`C/C=C/Cn1cc(-c2ccc(C(=O)N3CCOCC3)cc2)c2cc[nH]c2c1=O` registered an IC50 of 20 µM. That is a double-digit micromolar value.

Test system in the next assay: not listed separately
In words: Cytotoxicity against human 501A cells measured after 8 days. The assay is classed as functional, cell-based. The conditions noted are these: 192 h.
Take `C/C=C/Cn1cc(-c2ccc(C(=O)N3CCOCC3)cc2)c2cc[nH]c2c1=O`: inhibition was half-maximal at 20 µM (IC50).

The next assay deals with A-375. Briefly: Cytotoxicity against human A-375 cells measured after 8 days. It counts as functional, cell-based. Particulars: A-375, 192 h.
For the compound `C/C=C/Cn1cc(-c2ccc(C(=O)N3CCOCC3)cc2)c2cc[nH]c2c1=O`, the concentration for half-maximal inhibition (IC50) stood at 20 µM.

Test system in the next assay: not listed separately
Briefly: Cytotoxicity against human ATRFLOX cells measured after 8 days. The assay is classed as functional, cell-based. The conditions noted are these: 192 h.
`C/C=C/Cn1cc(-c2ccc(C(=O)N3CCOCC3)cc2)c2cc[nH]c2c1=O` displayed an IC50 of 20 µM.

The target of the next assay is Bromodomain testis-specific protein (Homo sapiens, UniProt Q58F21). In words: Binding affinity to human partial length BRDT bromodomain 2 (K250 to E382 residues) expressed in bacterial expression system by BROMOscan assay.
Details: not given
`C/C=C/Cn1cc(-c2cc(OC)c(C(C)(C)O)cc2OC)c2cc(C)[nH]c2c1=O` yielded a Kd of 6.6 µM.

Turning to `C/C=C/Cn1cc(-c2ccc(C(=O)N3CCOCC3)cc2)c2cc[nH]c2c1=O`, the Kd worked out at 3.5 µM. Compared with the last compound, the Kd is about 1.9-fold lower.

For the next assay, the system named is PA-1. In words: Cytotoxicity against human PA-1 cells measured after 8 days. The assay is classed as functional, cell-based. The conditions noted are these: PA-1, 192 h.
As for `C/C=C/Cn1cc(-c2ccc(C(=O)N3CCOCC3)cc2)c2cc[nH]c2c1=O`, inhibition was half-maximal at 20 µM (IC50).

A further assay concerns NCI-H1299. In words: Cytotoxicity against human NCI-H1299 cells measured after 8 days. It counts as functional, cell-based. Particulars: NCI-H1299, 192 h.
In the case of `C/C=C/Cn1cc(-c2ccc(C(=O)N3CCOCC3)cc2)c2cc[nH]c2c1=O`, half-maximal inhibition (IC50) required 20 µM.

The subject of a further assay is IGR-37 cell line. Briefly: Cytotoxicity against human IGR-37 cell line measured after 8 days. It counts as functional, cell-based. Particulars: IGR-37, 192 h.
Compound `C/C=C/Cn1cc(-c2ccc(C(=O)N3CCOCC3)cc2)c2cc[nH]c2c1=O` gave an IC50 of 20 µM.

A further assay concerns the target Cyclin-dependent kinase 2/cyclin A (Homo sapiens) (UniProt P24941+P20248+P78396). In words: Inhibition of CDK2/cyclin A (unknown origin) at 1 uM relative to control. It counts as protein-complex assay.
Details: not given
For `C/C=C/Cn1cc(-c2ccc(C(=O)N3CCOCC3)cc2)c2cc[nH]c2c1=O`, the inhibition stood at 1.6%.

A further assay concerns RERF-LC-MS. In words: Cytotoxicity against human RERF-LC-MS cells measured after 8 days. The assay is classed as functional, cell-based. The conditions noted are these: 192 h.
In turn, `C/C=C/Cn1cc(-c2ccc(C(=O)N3CCOCC3)cc2)c2cc[nH]c2c1=O` yielded a 50% inhibitory concentration (IC50) of 20 µM.

The next assay deals with NCI-H2009. Briefly: Cytotoxicity against human NCI-H2009 cells measured after 8 days. The conditions noted are these: NCI-H2009, 192 h. It counts as functional, cell-based.
As for `C/C=C/Cn1cc(-c2ccc(C(=O)N3CCOCC3)cc2)c2cc[nH]c2c1=O`, the concentration for half-maximal inhibition (IC50) was found to be 20 µM. This counts as double-digit micromolar.

For the next assay, the target named is T1, E3 ubiquitin-protein ligase TRIM33 (Homo sapiens, UniProt Q9UPN9).
T1 sequence (Q9UPN9 whole entry): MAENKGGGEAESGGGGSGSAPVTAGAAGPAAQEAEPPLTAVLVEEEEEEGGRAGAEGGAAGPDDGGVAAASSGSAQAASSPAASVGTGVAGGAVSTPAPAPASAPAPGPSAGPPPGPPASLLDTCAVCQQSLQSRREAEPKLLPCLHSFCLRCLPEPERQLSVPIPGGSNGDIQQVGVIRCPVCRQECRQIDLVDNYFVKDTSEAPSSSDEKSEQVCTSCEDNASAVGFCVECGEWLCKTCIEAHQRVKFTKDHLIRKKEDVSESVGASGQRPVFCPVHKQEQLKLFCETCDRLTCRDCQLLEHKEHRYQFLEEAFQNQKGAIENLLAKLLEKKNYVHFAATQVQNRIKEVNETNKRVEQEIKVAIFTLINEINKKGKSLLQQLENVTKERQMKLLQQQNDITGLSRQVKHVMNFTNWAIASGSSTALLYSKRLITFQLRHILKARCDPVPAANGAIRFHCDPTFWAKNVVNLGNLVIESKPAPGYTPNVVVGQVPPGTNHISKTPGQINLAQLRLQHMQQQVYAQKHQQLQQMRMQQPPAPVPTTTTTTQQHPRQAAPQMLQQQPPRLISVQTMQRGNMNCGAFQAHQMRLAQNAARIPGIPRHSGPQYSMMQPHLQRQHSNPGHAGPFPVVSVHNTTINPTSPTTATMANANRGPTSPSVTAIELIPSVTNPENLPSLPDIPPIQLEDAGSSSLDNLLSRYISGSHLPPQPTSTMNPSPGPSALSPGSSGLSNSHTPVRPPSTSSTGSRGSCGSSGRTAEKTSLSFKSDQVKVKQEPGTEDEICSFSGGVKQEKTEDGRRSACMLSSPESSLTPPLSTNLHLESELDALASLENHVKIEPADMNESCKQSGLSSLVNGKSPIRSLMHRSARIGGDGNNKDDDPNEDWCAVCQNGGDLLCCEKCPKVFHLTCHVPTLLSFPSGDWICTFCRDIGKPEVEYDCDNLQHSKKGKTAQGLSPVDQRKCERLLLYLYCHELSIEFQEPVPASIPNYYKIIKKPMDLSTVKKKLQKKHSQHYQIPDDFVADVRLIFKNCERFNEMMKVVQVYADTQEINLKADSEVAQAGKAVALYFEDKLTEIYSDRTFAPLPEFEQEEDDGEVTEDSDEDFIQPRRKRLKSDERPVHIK
Briefly: Binding affinity to human partial length TRIM33 (D882 to A1087 residues) expressed in bacterial expression system by BROMOscan assay.
Details: not given
The compound `C/C=C/Cn1cc(-c2cc(OC)c(C(C)(C)O)cc2OC)c2cc(C)[nH]c2c1=O` registered a Kd of more than 10 µM.

Consider `C/C=C/Cn1cc(-c2ccc(C(=O)N3CCOCC3)cc2)c2cc[nH]c2c1=O`, for which the Kd is more than 10 µM.

The next assay has as its target T2, Bromodomain-containing protein 7 (Homo sapiens, UniProt Q9NPI1).
T2 sequence (Q9NPI1 whole entry): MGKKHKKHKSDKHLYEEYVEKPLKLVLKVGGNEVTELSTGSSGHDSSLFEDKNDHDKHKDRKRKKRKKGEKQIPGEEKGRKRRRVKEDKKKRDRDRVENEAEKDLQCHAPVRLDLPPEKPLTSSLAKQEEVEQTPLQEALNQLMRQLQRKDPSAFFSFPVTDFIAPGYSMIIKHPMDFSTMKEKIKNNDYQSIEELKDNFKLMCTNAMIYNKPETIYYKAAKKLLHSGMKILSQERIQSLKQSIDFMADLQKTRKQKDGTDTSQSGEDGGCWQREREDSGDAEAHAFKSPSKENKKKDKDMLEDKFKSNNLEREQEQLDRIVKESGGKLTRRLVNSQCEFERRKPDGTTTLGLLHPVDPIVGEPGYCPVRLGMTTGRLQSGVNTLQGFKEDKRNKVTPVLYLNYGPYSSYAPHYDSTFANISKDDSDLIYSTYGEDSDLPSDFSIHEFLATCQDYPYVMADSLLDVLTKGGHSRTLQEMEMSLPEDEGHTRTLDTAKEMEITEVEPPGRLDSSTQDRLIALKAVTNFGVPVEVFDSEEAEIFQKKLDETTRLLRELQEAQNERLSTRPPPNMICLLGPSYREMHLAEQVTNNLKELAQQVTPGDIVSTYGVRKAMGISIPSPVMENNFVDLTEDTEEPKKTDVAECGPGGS
In words: Binding affinity to human partial length BRD7 (L125 to R254 residues) expressed in mammalian expression system by BROMOscan assay.
Details: not given
Turning to `C/C=C/Cn1cc(-c2cc(OC)c(C(C)(C)O)cc2OC)c2cc(C)[nH]c2c1=O`, the Kd is 0.52 µM.

`C/C=C/Cn1cc(-c2ccc(C(=O)N3CCOCC3)cc2)c2cc[nH]c2c1=O` displayed a Kd of 0.2 µM. Compared with the last compound, the Kd is about 2.6-fold lower.
